{
  "source": "patent US10821079B2",
  "about": "“PKC activators and combinations thereof” (Cognitive Research Enterprises, Inc., priority 2011, dated 2020)",
  "key": {"[1]": {"tested_on": "rat hippocampal primary neurons", "test": "Synaptic marker immunofluorescence in rat hippocampal primary neurons", "assay_type": "cell-based", "protocol": "Cells were grown in two chambered slides (Nunc, USA) at low density. For immunofluorescence staining, the cells were washed with PBS (pH 7.4) and fixed with 4% paraformaldehyde for 4 min. Following fixation, the cells were blocked and permeabilized with 5% serum and 0.3% Triton X 100 in 1×PBS for 30 min. The cells were washed three times with 1×PBS and incubated with primary antibodies for 1 hr at 1:100 dilution. The incubation slides were then washed again three times in 1×PBS and were incubated with the FITC anti-rabbit IgG and Rhodamine anti-mouse IgG for 1 hr at 1:400 dilution. The cells were further washed and treated with DAPI (4′,6-diamidino-2′-phenylindole, dihydrochloride) (Thermo Scientific, USA) to stain the nucleus. Finally, the slides were washed and mounted in Pro Long Gold antifade mounting solution (Invitrogen, USA) and were viewed under the LSM 710 Meta confocal microscope (Zeiss) at 350 nm, 490 nm, and 540 nm excitation and 470 nm, 525 nm, and 625 nm emission for DAPI, FITC, and Rhodamine respectively. Six individual fields at 63× oil lens magnification were analyzed for the mean fluorescence intensity (MFI) in each channel. The co-localization correlation generated by the ZEN software (Zeiss).\nTo estimate the synaptic damage caused by the ASPDs on primary hippocampal neurons, the expression of synaptophysin (a presynaptic marker) and PSD-95 (a postsynaptic marker) was measured by immunofluorescence staining. […] Following a 20 hr incubation period, the cells were stained for nucleus, PSD-95, and synaptophysin. Expression levels were calculated as the change of percentage in mean fluorescence intensity compared to untreated cells.\nPrimary neurons, treated and untreated, were immunostained for MAP-2, synaptophysin, and PSD-95 to determine the synaptic integrity. […] Following a 20 hr incubation period, the cells were stained for MAP-2, PSD-95, and synaptophysin as described above."}, "PKC-ε [2]": {"tested_on": "PKC-ε", "test": "PKC-ε mRNA by RT-PCR in primary rat hippocampal neurons", "assay_type": "cell-based", "conditions": "controls and ASPD-treated cells", "protocol": "RNA was isolated from the cells using Trizol reagent (Invitrogen, USA) following the manufacturer's protocol. Briefly, 5 μg of total RNA was reverse transcribed using oligo (dT) and Superscript III (Invitrogen, USA) at 50° C. for 1 hr. Two μl of the cDNA product was amplified using primers for PKC-ε (Forward Primer—[…], Reverse primer—[…]), and β-tubulin (Forward Primer—[…], Reverse primer—[…]) (Origene, Rockville, Md.) for 25 cycles following standard PCR protocols and 55° C. annealing temperature. The PCR amplicons were analyzed in an E-Gel (Invitrogen, USA). The gel image was documented using a Fuji Image gel scanner (FLA-9000, Fuji Film) and densitometric quantification was performed using the IMAL software (Blanchette Rockefeller Neurosciences Institute, Morgantown, W. Va.). Data were represented as normalized ratio of PKC-ε OD (Optical Density) against β-tubulin OD for three independent experiments.\nPrimary neurons were treated with ASPD and/or DCPLA-ME. PKC-ε mRNA was quantified by RT-PCR as described above. RNA prepared from control and treated cultured primary rat hippocampal neurons were isolated and reverse transcribed. Individual cDNA was amplified for PKC-ε and β-actin. PKC-ε expression was normalized to β-actin."}, "[3]": {"tested_on": "differentiated human SH-SY5Y cells", "test": "Neuroprotection against ASPD, MTT, SH-SY5Y cells", "assay_type": "cell-based", "conditions": "ASPD alone"}, "[4]": {"tested_on": "rat primary hippocampal neurons", "test": "Neurotoxic effect of Aβ1-42 assemblies, MTT viability", "assay_type": "cell-based", "conditions": "20 hr", "protocol": "(§1) Viability of cells was measured by MTT assay. MTT (3-(4,5-Dimethylthiazol-2-yl)-2,5-diphenyltetrazolium bromide) is a tetrazolium salt that is cleaved to formazan by the succinate dehydrogenase, which is only active in viable cells. After solubilization of the formazan, the amount of dye can be quantified with a microplate reader at 570 nm along with a reference of 630 nm. For MTT assay, 5×104 primary rat hippocampal neurons from 18-day-old embryonic Sprague-Dawley rat brains were plated on each well of 24-well plates coated with poly-D-lysine. After treatment, the cells were washed with 1×PBS and were incubated with 200 μl of 1 mg/ml MTT solution (Sigma, USA) at 37° C. for 2 hr. Then the MTT-solution was removed and the cells were lysed with 200 μl isopropanol containing 0.04 M HCl and 160 mM NaOH for 10 min. Finally, the reading was done at 570 nm and 630 nm. All the samples were done in triplicates and the data was represented as the percentage of control.\nTo assess the neurotoxic effect of different sized oligomers, rat primary hippocampal neurons were treated with variable concentrations of these Aβ1-42 species for 20 hr. Viability of the treated cells was compared to untreated cells using the MTT assay."}, "PKC-ε [5]": {"tested_on": "PKC-ε", "test": "PKC-ε translocation to membrane in SH-SY5Y cells (Western blot)", "assay_type": "cell-based, human", "conditions": "ASPD; ADDL at 20-fold higher concentrations", "protocol": "(§2) Cells were harvested in homogenizing buffer containing 10 mM Tris-Cl (pH 7.4), 1 mM PMSF (phenylmethylsulfonyl fluoride), 1 mM EGTA, 1 mM EDTA, 50 mM NaF, and 20 μM leupeptin and were lysed by sonication. The homogenate was centrifuged at 100,000×g for 15 min at 4° C. to obtain the cytosolic fraction (supernatant) and membrane (pellet). The pellet was resuspended in the homogenizing buffer by sonication. Protein concentration was measured using the Coomassie Plus (Bradford) Protein Assay kit (Pierce, USA). Following quantification, 20 μg of protein from each sample was subjected to SDS-PAGE analysis in 4-20% gradient Tris-Glycine gel (Invitrogen, USA). The separated protein was then transferred to nitrocellulose membrane. The membrane was blocked with BSA at room temperature for 15 min and was incubated with primary antibody over night at 4° C. After the incubation, it was washed three times with TBS-T (Tris Buffered saline-Tween 20) and further incubated with alkaline phosphatase conjugated secondary antibody (Jackson Immunoresearch Laboratories, USA) at 1:10,000 dilution for 45 min. The membrane was finally washed three times with TBS-T and developed using the 1-step NBT-BCIP substrate (Pierce, USA). Western Blot was imaged in the ImageQuant RT-ECL (GE Life Sciences, Piscataway, N.J.) and densitometric quantification was performed using the IMAL software (Blanchette Rockefeller Neurosciences Institute, Morgantown, W. Va.). For translocation assays, PKC activation was represented as the percentage of total protein in the membrane (membrane/cytosol+membrane).\nEqual amounts of proteins were loaded in each lane (20 μg) for both the cytosol and membrane fractions. Activation of PKC was calculated as the percentage of total PKC in the membrane (membrane/cytosol+membrane)."}, "[6]": {"tested_on": "primary rat hippocampal neurons", "test": "Neuroprotection against ASPD induced toxicity, MTT, primary neurons", "assay_type": "cell-based", "protocol": "as §1\nAll studies used 50 nM ASPDs. The viability of the cells were measured by the MTT assay."}, "PKC-ε [7]": {"tested_on": "PKC-ε", "test": "PKC-ε level in primary neurons (immunofluorescence, Western Blot)", "assay_type": "cell-based, rat", "conditions": "primary neurons, 20 hr ASPD", "protocol": "as §2\nCells were grown in two chambered slides (Nunc, USA) at low density. For immunofluorescence staining, the cells were washed with PBS (pH 7.4) and fixed with 4% paraformaldehyde for 4 min. Following fixation, the cells were blocked and permeabilized with 5% serum and 0.3% Triton X 100 in 1×PBS for 30 min. […] Six individual fields at 63× oil lens magnification were analyzed for the mean fluorescence intensity (MFI) in each channel. […]"}, "synaptophysin": {"tested_on": "synaptophysin", "test": "Synaptophysin Western Blot in primary rat hippocampal neurons", "assay_type": "cell-based", "conditions": "ASPD", "protocol": "as §2"}, "[8]": {"conditions": "50 nM ASPD alone (ASPD) or with 100 nM DCPLA-ME, 20 hr"}, "[9]": {"conditions": "50 nM ASPD alone (ASPD) or with RA and Bryostatin-1, 20 hr"}},
  "data": [
    {"substance": "ASPD: amylospheroids, Aβ1-42 assemblies retained by a 100 kDa filter", "values": [
      {"measurement": "MAP-2 expression (mean fluorescence intensity)", "setting": "[1]; [8]", "result": "40.7±6.2", "unit": "%"},
      {"measurement": "PSD-95 expression (mean fluorescence intensity)", "setting": "[1]; [8]", "result": "67.63±7.24", "unit": "%"},
      {"measurement": "synaptophysin expression (mean fluorescence intensity)", "setting": "[1]; [8]", "result": "63.3±3.8", "unit": "%"},
      {"measurement": "Mean fluorescence intensity of PSD-95", "setting": "[1]; [9]", "result": "8.16±1.21"},
      {"measurement": "Mean fluorescence intensity of synaptophysin", "setting": "[1]; [9]", "result": "9.74±2.5"},
      {"measurement": "decrease of PSD-95 expression", "setting": "[1]; 50 nM ASPD, 20 hr", "result": 42, "unit": "%"},
      {"measurement": "decrease in synaptophysin intensity", "setting": "[1]; 50 nM ASPDs, 1 μM ADDLs, 20 hr", "result": 40, "unit": "%"},
      {"measurement": "synaptophysin intensity compared to the control", "setting": "[1]; 50 nM ASPDs, 1 μM ADDLs, 20 hr", "result": "62.45±6.74", "unit": "%"},
      {"measurement": "PKC-ε transcript levels (in words)", "setting": "PKC-ε [2]", "result": "did not change PKC-ε mRNA significantly"},
      {"measurement": "viability compared to the untreated cells", "setting": "[3]", "result": "77.15±0.49", "unit": "%"},
      {"measurement": "Viability of primary neuron (Mean ± SEM)", "setting": "[4]; 0.5 nM", "result": "95.12 ± 0.733 % of control"},
      {"measurement": "Viability of primary neuron (Mean ± SEM)", "setting": "[4]; 1 nM", "result": "89.64 ± 5.99 % of control"},
      {"measurement": "Viability of primary neuron (Mean ± SEM)", "setting": "[4]; 2 nM", "result": "87.75 ± 0.94 % of control"},
      {"measurement": "Viability of primary neuron (Mean ± SEM)", "setting": "[4]; 5 nM", "result": "70.95 ± 1.89 % of control"},
      {"measurement": "Viability of primary neuron (Mean ± SEM)", "setting": "[4]; 10 nM", "result": "68.68 ± 0.84 % of control"},
      {"measurement": "Viability of primary neuron (Mean ± SEM)", "setting": "[4]; 50 nM", "result": "57.55 ± 3.35 % of control"},
      {"measurement": "viability of neurons", "setting": "[4]; 50 nM", "result": "57.1±4.9", "unit": "%"},
      {"measurement": "Viability of primary neuron (Mean ± SEM)", "setting": "[4]; 500 nM", "result": "52.94 ± 3.75 % of control"},
      {"measurement": "PKC-ε membrane translocation", "setting": "PKC-ε [5]", "result": "69.98±3.27", "unit": "%"},
      {"measurement": "reduction of PKC-ε translocation", "setting": "PKC-ε [5]", "result": 46, "unit": "%"},
      {"measurement": "viability of primary neurons", "setting": "[6]; 50 nM ASPD alone, 20 hr", "result": "57.6±1.6", "unit": "%"},
      {"measurement": "viability (Example 25)", "setting": "[6]; 50 nM ASPDs alone (ASPD) or with the treatment named, 24 hr", "result": "57.61%±1.59"},
      {"measurement": "PKC-ε immunofluorescence level compared to control", "setting": "PKC-ε [7]", "result": "60.81±5.85", "unit": "%"},
      {"measurement": "decrease of synaptophysin expression by Western Blot", "setting": "synaptophysin", "result": 26, "unit": "%"},
      {"measurement": "synaptophysin expression by Western Blot", "setting": "synaptophysin", "result": "73.30%±3.319"}
    ]}
  ]
}
